The subject of one experiment is HL-60. Kind of experiment: Inhibitory concentration against Human leukemia cancer cell (HL-60)lines was determined. The format is functional, cell-based.
Another experiment concerns BGC-823. Kind of experiment: Inhibitory concentration against Human Gastric cancer cell (BGC)lines was determined. The class given is functional, cell-based. Particulars: BGC-823, Stomach.
The test system of another experiment is KB. Kind of experiment: Inhibitory concentration against KB cancer cell lines was determined. The class given is functional, cell-based. Particulars: Homo sapiens.
The test system of another experiment is HeLa. Briefly: Inhibitory concentration against Hella cancer cell lines was determined. Particulars: Homo sapiens. The format is functional, cell-based.
The species entered for another experiment is Homo sapiens. Briefly: Inhibitory concentration against Human Gastric cancer cell (BGC) lines was determined. The format is functional. Particulars: Stomach.

Take `NCCCCCCNC(=O)c1cc2c3ccccc3nc-2c[nH]1`: in the experiment with HL-60, the half-maximal inhibitory concentration (IC50) came to 510 µM.
`CCN(CC)CCNC(=O)c1cc2c3ccccc3nc-2c[nH]1`: the IC50 in the experiment on BGC-823 was 98 µM; with KB, 250 µM; with HL-60 it was 130 µM.
`NCCNC(=O)c1cc2c3ccccc3nc-2c[nH]1`: the IC50 with KB was determined as 140 µM; in the experiment with HL-60, 81 µM.
The compound `CN(C)CCCCNC(=O)c1cc2c3ccccc3nc-2c[nH]1` yielded an IC50 in the experiment on HeLa of 140 µM.
On to `NCCCCNC(=O)c1cc2c(cn1)[nH]c1ccccc12`, for which the half-maximal inhibitory concentration (IC50) in the experiment on BGC-823 is 8.6 µM; in the experiment with KB, 4.1 µM; in the experiment with HL-60, 1.9 µM.
`O=c1[nH]cc(F)c(=O)[nH]1` [FLUOROURACIL]: the IC50 with HeLa came out at 1.6 µM; in the experiment filed under Homo sapiens, 68 µM; in the experiment with KB, 3.5 µM; in the experiment on HL-60, 1 µM.
